Converted amounts (≈) assume the structure as drawn.
Columns and labels:
Format in all cases: functional
[1] = Antibacterial activity against Streptococcus sp. 'group G' obtained from complicated skin and skin structure infections by agar dilution method
Enterococcus faecalis = experiment: Antibacterial activity against Enterococcus faecalis obtained from complicated skin and skin structure infections by agar dilution method
Staphylococcus aureus [2] = experiment: Antibacterial activity against methicillin susceptible Staphylococcus aureus obtained from complicated skin and skin structure infections by agar dilution method
Bacillus = experiment: Antibacterial activity against Bacillus spp. obtained from complicated skin and skin structure infections by agar dilution method
Micrococcus = experiment: Antibacterial activity against Micrococcus spp. obtained from complicated skin and skin structure infections by agar dilution method
Aerococcus viridans = experiment: Antibacterial activity against Aerococcus viridans obtained from complicated skin and skin structure infections by agar dilution method
Streptococcus agalactiae = experiment: Antibacterial activity against Streptococcus agalactiae obtained from complicated skin and skin structure infections by agar dilution method
Staphylococcus warneri = experiment: Antibacterial activity against coagulase-negative Staphylococcus warneri obtained from complicated skin and skin structure infections by agar dilution method
[3] = test system: Staphylococcus lugdunensis; experiment: Antibacterial activity against methicillin-resistant, oxacillin-susceptible, coagulase-negative, mecA-positive Staphylococcus lugdunensis obtained from complicated skin and skin structure infections by agar dilution method
Gemella morbillorum = experiment: Antibacterial activity against Gemella morbillorum obtained from complicated skin and skin structure infections […]
Staphylococcus hominis = experiment: Antibacterial activity against coagulase-negative Staphylococcus hominis obtained from complicated skin and skin structure infections by agar dilution method
[4] = test system: Streptococcus constellatus; experiment: Antibacterial activity against Streptococcus constellatus obtained from complicated skin and skin structure infections by agar dilution method
Mammaliicoccus sciuri = experiment: Antibacterial activity against coagulase-negative Staphylococcus sciuri obtained from complicated skin and skin structure infections by agar dilution method
Streptococcus mitis = experiment: Antibacterial activity against Streptococcus mitis obtained from complicated skin and skin structure infections by agar dilution method
Lactococcus lactis = experiment: Antibacterial activity against Lactococcus lactis obtained from complicated skin and skin structure infections by agar dilution method
Streptococcus pyogenes = experiment: Antibacterial activity against Streptococcus pyogenes obtained from complicated skin and skin structure infections by agar dilution method
Staphylococcus aureus [5] = experiment: Antibacterial activity against methicillin resistant Staphylococcus aureus obtained from complicated skin and skin structure infections by agar dilution method
Enterococcus faecium = experiment: Antibacterial activity against Enterococcus faecium obtained from complicated skin and skin structure infections by agar dilution method
[6] = test system: Staphylococcus intermedius; experiment: Antibacterial activity against Staphylococcus intermedius obtained from complicated skin and skin structure infections by agar dilution method
Staphylococcus capitis = experiment: Antibacterial activity against coagulase-negative Staphylococcus capitis obtained from complicated skin and skin structure infections by agar dilution method
Gemella = experiment: Antibacterial activity against Gemella spp. obtained from complicated skin and skin structure infections by agar dilution method
Staphylococcus = experiment: Antibacterial activity against methicillin-susceptible, coagulase-negative Staphylococcus obtained from complicated skin and skin structure infections by agar dilution method
[7] = test system: Staphylococcus saprophyticus; experiment: Antibacterial activity against coagulase-negative Staphylococcus saprophyticus obtained from complicated skin and skin structure infections by agar dilution method
[8] = test system: Staphylococcus epidermidis; experiment: Antibacterial activity against coagulase-negative Staphylococcus epidermidis obtained from complicated skin and skin structure infections by agar dilution method
[9] = Antibacterial activity against Streptococcus sp. 'group C' obtained from complicated skin and skin structure infections by agar dilution method
Staphylococcus cohnii = experiment: Antibacterial activity against coagulase-negative Staphylococcus cohnii obtained from complicated skin and skin structure infections by agar dilution method
[10] = test system: Staphylococcus haemolyticus; experiment: Antibacterial activity against coagulase-negative Staphylococcus haemolyticus obtained from complicated skin and skin structure infections by agar dilution method
[11] = test system: Staphylococcus lugdunensis; experiment: Antibacterial activity against coagulase-negative Staphylococcus lugdunensis obtained from complicated skin and skin structure infections by agar dilution method

Compound CCC[C@@H]1C[C@@H](C(=O)N[C@@H]([C@H]2O[C@H](SC)[C@H](O)[C@@H](O)[C@H]2O)[C@H](C)Cl)N(C)C1 [CLINDAMYCIN] has an MIC50 [1] of 0.06 µg/mL (≈ 0.141 µM), an MIC90 [1] of 0.06 µg/mL (≈ 0.141 µM) and an MIC50 (Enterococcus faecalis) of 16 µg/mL (≈ 37.6 µM). The MIC90 (Enterococcus faecalis) was greater than 8 µg/mL, the MIC50 (Staphylococcus aureus [2]) was 0.12 µg/mL (≈ 0.282 µM) and the MIC90 (Staphylococcus aureus [2]) was 0.12 µg/mL (≈ 0.282 µM). For the same compound, the MIC50 (Bacillus) was 1 µg/mL (≈ 2.35 µM), the MIC90 (Bacillus) was 4 µg/mL (≈ 9.41 µM) and the MIC50 (Micrococcus) was 1 µg/mL (≈ 2.35 µM). It also gave an MIC90 (Micrococcus) of 4 µg/mL (≈ 9.41 µM), an MIC50 (Aerococcus viridans) of 1 µg/mL (≈ 2.35 µM) and an MIC90 (Aerococcus viridans) of 4 µg/mL (≈ 9.41 µM). It also gave an MIC50 (Streptococcus agalactiae) of 0.06 µg/mL (≈ 0.141 µM), an MIC90 (Streptococcus agalactiae) greater than 16 µg/mL and an MIC50 (Staphylococcus warneri) of 0.06 µg/mL (≈ 0.141 µM). It also gave an MIC90 (Staphylococcus warneri) of 1 µg/mL (≈ 2.35 µM), an MIC50 [3] of 0.06 µg/mL (≈ 0.141 µM) and an MIC90 [3] greater than 8 µg/mL. The MIC50 (Gemella morbillorum) was 1 µg/mL (≈ 2.35 µM), the MIC90 (Gemella morbillorum) was 4 µg/mL (≈ 9.41 µM) and the MIC50 (Staphylococcus hominis) was 0.06 µg/mL (≈ 0.141 µM). The MIC90 (Staphylococcus hominis) was 1 µg/mL (≈ 2.35 µM), the MIC [4] was no more than 0.06 µg/mL and the MIC50 [4] was no more than 0.06 µg/mL. For the same compound, the MIC90 [4] was 0.06 µg/mL (≈ 0.141 µM), the MIC50 (Mammaliicoccus sciuri) was 0.06 µg/mL (≈ 0.141 µM) and the MIC90 (Mammaliicoccus sciuri) was 1 µg/mL (≈ 2.35 µM). It also gave an MIC50 (Streptococcus mitis) of 2 µg/mL (≈ 4.71 µM), an MIC90 (Streptococcus mitis) of 4 µg/mL (≈ 9.41 µM) and an MIC50 (Lactococcus lactis) of 1 µg/mL (≈ 2.35 µM). It also gave an MIC90 (Lactococcus lactis) of 4 µg/mL (≈ 9.41 µM), an MIC50 (Streptococcus pyogenes) of 0.06 µg/mL (≈ 0.141 µM) and an MIC90 (Streptococcus pyogenes) of 0.06 µg/mL (≈ 0.141 µM). The MIC50 (Staphylococcus aureus [5]) was 0.12 µg/mL (≈ 0.282 µM), the MIC90 (Staphylococcus aureus [5]) was greater than 16 µg/mL and the MIC (Enterococcus faecium) was no more than 0.06 µg/mL. For the same compound, the MIC50 (Enterococcus faecium) was 0.06 µg/mL (≈ 0.141 µM), the MIC50 [6] was 2 µg/mL (≈ 4.71 µM) and the MIC90 [6] was 4 µg/mL (≈ 9.41 µM). For the same compound, the MIC50 (Staphylococcus capitis) was 0.06 µg/mL (≈ 0.141 µM), the MIC90 (Staphylococcus capitis) was 1 µg/mL (≈ 2.35 µM) and the MIC50 (Gemella) was 1 µg/mL (≈ 2.35 µM). The MIC90 (Gemella) was 4 µg/mL (≈ 9.41 µM), the MIC50 (Staphylococcus) was no more than 0.06 µg/mL and the MIC90 (Staphylococcus) was 0.12 µg/mL (≈ 0.282 µM). The MIC50 [7] was 0.06 µg/mL (≈ 0.141 µM), the MIC90 [7] was 1 µg/mL (≈ 2.35 µM) and the MIC50 [8] was 0.06 µg/mL (≈ 0.141 µM). The MIC90 [8] was 1 µg/mL (≈ 2.35 µM), the MIC50 [9] was no more than 0.06 µg/mL and the MIC90 [9] was 0.25 µg/mL (≈ 0.588 µM). For the same compound, the MIC50 (Staphylococcus cohnii) was 0.06 µg/mL (≈ 0.141 µM), the MIC90 (Staphylococcus cohnii) was 1 µg/mL (≈ 2.35 µM) and the MIC50 [10] was 0.06 µg/mL (≈ 0.141 µM). For the same compound, the MIC90 [10] was 1 µg/mL (≈ 2.35 µM), the MIC50 [11] was 0.06 µg/mL (≈ 0.141 µM) and the MIC90 [11] was 1 µg/mL (≈ 2.35 µM).

Source: ChEMBL document CHEMBL1275492, “In vitro activity of ceftobiprole against pathogens from two phase 3 clinical trials of complicated skin and skin structure infections” (2008)
